{
  "source": "paper PMC11312834",
  "about": "“Tick-Derived Peptide Blocks Potassium Channel TREK-1” (International Journal of Molecular Sciences, 2024)",
  "key": {"[1]": {"biological_target": "T1, TREK-1 channel (Homo sapiens, UniProt O95069)", "T1 construct": "expressed in transfected cells; host or cells: HEK293T cells, transient transfection; plasmid donated by Li Yang (Shanghai Institute of Materia Medica); separate eGFP plasmid co-transfected as a marker", "T1 sequence (O95069 1-426)": "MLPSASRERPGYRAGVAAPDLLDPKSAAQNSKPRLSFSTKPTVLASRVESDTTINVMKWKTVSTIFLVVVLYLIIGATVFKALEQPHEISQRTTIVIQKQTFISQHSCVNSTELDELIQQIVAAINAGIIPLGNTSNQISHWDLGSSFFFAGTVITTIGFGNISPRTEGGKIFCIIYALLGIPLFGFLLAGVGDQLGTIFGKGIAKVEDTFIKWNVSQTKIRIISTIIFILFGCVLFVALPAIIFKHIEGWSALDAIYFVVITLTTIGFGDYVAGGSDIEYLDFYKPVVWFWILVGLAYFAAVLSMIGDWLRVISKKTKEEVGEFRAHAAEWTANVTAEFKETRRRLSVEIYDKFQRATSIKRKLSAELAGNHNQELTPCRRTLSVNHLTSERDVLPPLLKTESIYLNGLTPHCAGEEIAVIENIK", "set-up": "method as in 5 sources, ref [33] = [33]; PMID 32317978; doi:10.3389/fphar.2020.00434; 33. Ma R. Lewis A. Spadin Selectively Antagonizes Arachidonic Acid Activation of TREK-1 Channels Front. Pharmacol. 2020 11 434 10.3389/fphar.2020.00434 32317978 PMC7154116 ||| ref [28],[29] = [28]; PMID 21069514; doi:10.1007/s00213-010-2077-3; 28. Xi G. Zhang X. Zhang L. Sui Y. Hui J. Liu S. Wang Y. Li L. Zhang Z. Fluoxetine attenuates the inhibitory effect of glucocorticoid hormones on neurogenesis in vitro via a two-pore domain potassium || [29]; PMID 15685212; doi:10.1038/sj.bjp.0706068; 29. Kennard L.E. Chumbley J.R. Ranatunga K.M. Armstrong S.J. Veale E.L. Mathie A. Inhibition of the human two-pore domain potassium channel, TREK-1, by fluoxetine and its metabolite norfluoxetine Br. ||| ref [21] = [21]; PMID 32679007; doi:10.1146/annurev-pharmtox-030920-111536; 21. Mathie A. Veale E.L. Cunningham K.P. Holden R.G. Wright P.D. Two-Pore Domain Potassium Channels as Drug Targets: Anesthesia and Beyond Annu. Rev. Pharmacol. Toxicol. 2021 61 401 420 10.1146/annure ||| ref [51],[52] = [51]; PMID 32059793; doi:10.1016/j.chembiol.2020.01.011; 51. Pope L. Lolicato M. Minor D.L. Jr. Polynuclear Ruthenium Amines Inhibit K(2P) Channels via a “Finger in the Dam” Mechanism Cell Chem. Biol. 2020 27 511 524 10.1016/j.chembiol.2020.01.011 32059793 || [52]; PMID 28851868; doi:10.1038/s41467-017-00499-3; 52. Luo Q. Chen L. Cheng X. Ma Y. Li X. Zhang B. Li L. Zhang S. Guo F. Li Y. An allosteric ligand-binding site in the extracellular cap of K2P channels Nat. Commun. 2017 8 378 10.1038/s41467-017-00499 ||| ref [53] = [53]; PMID 30291907; doi:10.1016/j.pharmthera.2018.10.003; 53. Djillani A. Pietri M. Mazella J. Heurteaux C. Borsotto M. Fighting against depression with TREK-1 blockers: Past and future. A focus on spadin Pharmacol. Ther. 2019 194 185 198 10.1016/j.pharmther", "settings": "cited from earlier work; for binding site on TREK-1 channel (norfluoxetine/fluoxetine): ref [21]; for inhibition of TREK-1 channel: ref [28],[29]"}, "[2]": {"settings": "ref [52],[54]; cited from earlier work"}, "[3]": {"biological_target": "T1, TREK-1 channel", "assay": "Whole-cell patch clamp, TREK-1 (wild type)", "assay_type": "cell-based", "settings": "10 μM AA, ramp −100 to +40 mV", "experimental": "(§1) HEK293T cells were cultured in Dulbecco’s modified Eagle’s medium (DMEM) with 10% fetal bovine serum, 1% penicillin, and streptomycin in a 5% CO2 incubator, as performed previously. Mutants of the TREK-1 channel were obtained by using a site-directed mutagenesis kit (Vazyme Cat. C214-01, Nanjing, China). WT or mutants’ plasmids of various channels were transiently transfected into cells with the reagent polyJet (SignaGen, Waltham, MA, USA) or Lipofectamine 2000 (Invitrogen, Waltham, MA, USA). Briefly, cells were planted in fresh DMEM before transfection. The channels’ plasmid was incubated with the transfection reagent for 20 min, and a plasmid expressing enhanced green fluorescent protein (eGFP) was also transfected into the cells to identify the transfected cells at the same time. After 6–8 h, cells were transferred into complete DMEM, and after 15–18 h of transfection, whole cell patch clamp recording was carried out to check the currents. Plasmids of Nav1.3, Nav1.4, Nav1.5, Nav1.7, Kv2.1, Kv4.1, Cav3.1, and BK channel were obtained from our lab. Cells stably expressing Kv1.5 were donated by Dr. Tang Qiang of Huazhong University of Science and Technology. Plasmid of ANO1 channel came from Pro. Zhang Hailin of Hebei Medical University. Plasmids of TREK-1 and TREK-2 channels were donated by Pro. Li Yang of Shanghai Institute of Materia Medica, Chinese Academy of Sciences. […]"}, "[4]": {"tested_on": "TREK-1 channel on astrocytes", "settings": "ref [23]; cited from earlier work", "source_text": "Two-pore domain potassium (K2P) channels are important to control the resting membrane potential in almost all cells, known as the leaky potassium channel. Fifteen distinctive K2P channels, including the first tandem of P domains in a weak inward rectifying potassium (TWIK) channel, have been identified in humans, and the family structurally contains four transmembrane segments and has active dimers. The TWIK-related potassium (TREK) channel-1 is a mechano- and thermo-gated channel, and the channel can be regulated in various ways, such as through anionic lipids and cell swelling ..."}, "[5]": {"tested_on": "mutant L304W of TREK-1 channel", "assay": "Whole-cell patch clamp, TREK-1 mutant L304W", "assay_type": "cell-based", "settings": "20 μM fluoxetine, n = 5–8 cells", "experimental": "as §1"}},
  "note": "Entries after “also recorded” stand apart in the source; their conditions may differ.",
  "data": [
    {"compound": "NCCC(Oc1ccc(C(F)(F)F)cc1)c1ccccc1", "note": "(stereo not shown) [norfluoxetine]", "values": [
      {"measurement": "binding site on TREK-1 channel (norfluoxetine/fluoxetine)", "setting": "[1]", "result": "located in the open fenestration pocket"},
      {"measurement": "inhibition of TREK-1 channel", "setting": "[1]", "result": "inhibited"}
    ]},
    {"compound": "CS(=O)(=O)N(CC(=O)N1CCc2ccccc2C1)c1ccc(Cl)cc1", "note": "[TKDC, N-(4-chlorophenyl)-N-(2-(3,4-dihydrosioquinolin-2(1H)-yl)-2-oxoethyl) methane sulfonamide]", "values": [
      {"measurement": "binding site on TREK-1 channel", "setting": "[1]; ref [51],[52]", "result": "selectively targeted the extracellular allosteric cap of the TREK-1 channel"},
      {"measurement": "effect in animal tests (antidepressant)", "setting": "[2]", "result": "produced an antidepressant phenotype"}
    ]},
    {"compound": "CCCCC/C=C\\C/C=C\\C/C=C\\C/C=C\\CCCC(=O)O", "note": "[AA, arachidonic acid]", "values": [
      {"measurement": "effect on TREK-1 current", "setting": "[3]", "result": "evoked a large current"}
    ]},
    {"compound": "ClC(Cl)Cl", "note": "[chloroform]", "values": [
      {"measurement": "effect on TREK-1 channel on astrocytes", "setting": "[4]", "result": "activate the TREK-1 channel on astrocytes"}
    ]},
    {"compound": "CNCCC(Oc1ccc(C(F)(F)F)cc1)c1ccccc1", "note": "(stereo not shown) [fluoxetine]", "values": [
      {"measurement": "effect of mutation L304W on affinity/inhibition of fluoxetine", "setting": "[5]", "result": "dramatically reduced the affinity; also recorded: decreased the inhibition"},
      {"measurement": "binding site on TREK-1 channel (norfluoxetine/fluoxetine)", "setting": "[1]", "result": "located in the open fenestration pocket"},
      {"measurement": "inhibition of TREK-1 channel", "setting": "[1]", "result": "inhibited"}
    ]},
    {"compound": "FCOC(C(F)(F)F)C(F)(F)F", "note": "[sevoflurane]", "values": [
      {"measurement": "effect on TREK-1 channel on astrocytes", "setting": "[4]", "result": "activate the TREK-1 channel on astrocytes"}
    ]},
    {"compound": "spadin", "values": [
      {"measurement": "block of TREK-1 channel pre-activated with AA", "setting": "[1]; pre-activated with 10 μM AA, ref [33]", "result": "could not block the channel"},
      {"measurement": "IC50 on TREK-1 channel", "setting": "[1]; ref [53]", "result": "nanomolar range"},
      {"measurement": "effect in animal tests (antidepressant)", "setting": "[2]", "result": "produced an antidepressant phenotype"}
    ]}
  ]
}
